Reference: the NIST ThermoML archive (doi:10.1016/j.fluid.2006.10.024)
± gives the expanded uncertainty stated by the source.

Details: Liquid; for mass density: 101.33 kPa

Structure (SMILES) | mass density (298.15 K) | vapor or sublimation pressure (298.15 K) | mass density (313.15 K) | vapor or sublimation pressure (313.15 K) | mass density (328.15 K) | vapor or sublimation pressure (328.15 K)
CCCCCCl [1-chloropentane] | 877 ± 1 kg/m3 | 4.055 ± 0.11 kPa | 861.52 ± 1.1 kg/m3 | 8.45 ± 0.14 kPa | 846.33 ± 1.1 kg/m3 | 16.4 ± 0.21 kPa
C1CCOCC1 [tetrahydropyran] | 878.81 ± 1 kg/m3 | 9.56 ± 0.15 kPa | 863.67 ± 1.1 kg/m3 | 18.66 ± 0.23 kPa | 848.29 ± 1.1 kg/m3 | 33.95 ± 0.35 kPa
C1COCCO1 [1,4-dioxane] | 1027.87 ± 0.71 kg/m3 | 4.9 ± 0.12 kPa | 1010.69 ± 0.63 kg/m3 | 10.17 ± 0.16 kPa | 993.75 ± 0.6 kg/m3 | 19.54 ± 0.23 kPa
C1COCO1 [1,3-dioxolane] | 1058.62 ± 0.85 kg/m3 | 13.54 ± 0.18 kPa | 1039.88 ± 0.76 kg/m3 | 26.83 ± 0.29 kPa | 1020.86 ± 0.67 kg/m3 | 49.01 ± 0.47 kPa
C1CCOC1 [tetrahydrofuran] | 881.95 ± 0.45 kg/m3 | 21.61 ± 0.25 kPa | 865.36 ± 0.49 kg/m3 | 40.62 ± 0.4 kPa | 848.68 ± 0.52 kg/m3 | 70.61 ± 0.63 kPa
